“And” between values parts separate entries of the source, which are not always exact repeats. Identical values can stand only once.
Assays:
[1] = molecular target: T1, PAF receptor in CHO-A cells (moderately exp PAF-R) (Cavia porcellus, UniProt P21556); assay: Competition for 3H-PAF binding to CHO-A cell homogenates
T1 construct: expressed in transfected cells; host or cells: Chinese hamster ovary cells: CHO-B (high expression) and CHO-A (mild expression), used as cell homogenates
Procedure: Binding studies were performed on subcellular fractions of tissues obtained from rat brain cortex, according to procedures described in V. Marcheselli et al., “Distinct platelet-activating factor binding sites in synaptic endings and in intracellular membranes of rat cerebral cortex,” J. biol. Chem., vol. 265, pp. 9140-9145 (1990). Freshly dissected brain tissues were homogenized in ice-cold buffer (50 mM Tris-HCl, 2 mM EGTA, 5 mM PMSF, 250 mM sucrose, 7.4 pH). Subcellular fractions were obtained by differential centrifugation. The microsomal fraction was sedimented after 100,000×g for 1 hour centrifugation. In addition, three cell lines from Chinese hamster ovary (CHO) with varying expression of PAF receptors, CHO-A, CHO-B, and CHO-C cells (from Dr. Takao Shiizu, University of Tokyo, Tokyo, Japan) were cultured to the fourth-passage cells. These cells were cultured to confluence, then detached from their culturing flasks, and pelleted by rapid centrifugation (3,000 rpm, 10 min). Cellular pellets were homogenized in ice-cold buffer as described above. Freshly obtained microsomal fractions or CHO cellular homogenates were utilized for saturation, displacement, and competition studies using ^3H-PAF as the hot ligand, unlabeled-PAF to detect non-specific binding, and a LAU-0900 series compound to displace by competition ^3H-PAF bound to a receptor. […]

[2] = Evans Blue accumulation in brain cortex in vasogenic cerebral edema; assay type: in vivo, rat; details: LAU-0903 30 μg/kg intra-ventricularly 15 min before injury; dexamethasone 6.2 μg/kg i.p. every 8 hr for 24 hr; 2 hr and 12 hr after injury
[3] = molecular target: T2, cell-surface-type PAF receptor over-expressed in CHO-B cells (Cavia porcellus, UniProt P21556); assay: Competition for 3H-PAF binding to CHO-B cell homogenates
T2 construct: expressed in transfected cells; host or cells: Chinese hamster ovary cells: CHO-B (high expression) and CHO-A (mild expression), used as cell homogenates
Procedure: (§1) Binding studies were performed on subcellular fractions of tissues obtained from rat brain cortex, according to procedures described in V. Marcheselli et al., “Distinct platelet-activating factor binding sites in synaptic endings and in intracellular membranes of rat cerebral cortex,” J. biol. Chem., vol. 265, pp. 9140-9145 (1990). Freshly dissected brain tissues were homogenized in ice-cold buffer (50 mM Tris-HCl, 2 mM EGTA, 5 mM PMSF, 250 mM sucrose, 7.4 pH). Subcellular fractions were obtained by differential centrifugation. The microsomal fraction was sedimented after 100,000×g for 1 hour centrifugation. In addition, three cell lines from Chinese hamster ovary (CHO) with varying expression of PAF receptors, CHO-A, CHO-B, and CHO-C cells (from Dr. Takao Shiizu, University of Tokyo, Tokyo, Japan) were cultured to the fourth-passage cells. These cells were cultured to confluence, then detached from their culturing flasks, and pelleted by rapid centrifugation (3,000 rpm, 10 min). Cellular pellets were homogenized in ice-cold buffer as described above. Freshly obtained microsomal fractions or CHO cellular homogenates were utilized for saturation, displacement, and competition studies using ^3H-PAF as the hot ligand, unlabeled-PAF to detect non-specific binding, and a LAU-0900 series compound to displace by competition ^3H-PAF bound to a receptor.
(§2) See B. Liu et al., “Implication of protein kinase C alpha in PAF-stimulated phospholipase D Activation in Chinese hamster ovary (CHO) cells expressing PAF receptor,” Biochem. Biophys. Res. Commun., vol.214, pp.418-423 (1995). […] Both the constants of inhibition (KI) and 50% of inhibitory activity (IC50) were significant at a low concentration of LAU-0903.

[4] = tested on: human COX-2 promoter; assay: IL-1β-induced COX-2 promoter-luciferase transcription in CV-1 cells; assay type: cell-based; details: 100 nM compound, 10 nM IL-1β
Procedure: (§3) To test the ability of LAU-0900 series compounds to inhibit COX-2 expression, a kidney cell line was transiently transfected with the 830-base-pair human COX-2 promoter construct (proximal to the transcription start site) fused to the luciferase gene as a reporter as described below.
(§4) Transfection of CV-1 cells with human COX-2promoterfused with LUC: C V-1 Cells (African green monkey kidney cell line, ATCC # CCL-17) were grown in DMEM-F12 (GIBCO-BRL, Rockville, Md.) supplemented with 10% FBS (fetal bovine serum) in 6-well plates. At 80% confluence, the cells were transfected with 10 μg human COX-2 promoter-LUC construct (containing 830 base pairs of the human COX-2 promoter (donated by Dr. Stephen Prescot, Huntsman Cancer Institute, Salt Lake City, Utah) using a liposomal transfection reagent (DOTAP, Roche Diagnostics, Gmbh, Mannheim, Germany). Promoterless β-galactosidase construct (Promega, Madison, Wis.) was co-transfected to assess transfection efficiency. Three hours after transfection at 37° C., the medium was removed, and the cells were washed with phonsphate-buffered saline solution, pH 7.2 (PBS; Gibco-BRL, Rockville Md. The plates were further incubated at 37° C. in complete medium DMEM-F12 with 10% FBS for about 8-10 hr. Before the addition of the inducers of COX-2, PAF (100 nM) or IL-1β (10 ng/ml), the CV-1-transfected cells were serum-starved for 8 hr at 37° C. After the addition of the inducers, the cells were incubated for 8-10 hr at 37° C. Then the medium was removed, the cells were washed with PBS, harvested, and frozen at −80° C. until used for assays.
(§5) To test the effectiveness of the LAU-0900 series compounds, the transfected cells were treated for 1 hr with 100 nM of various LAU-0900 series compounds before the addition of the inducers (either PAF or IL-1β, and the LAU-0900 compound remained in the medium throughout the incubation period.
(§6) Luciferase assay of transfected CV-1 cells: Frozen cells were homogenized in 300 μl luciferase assay buffer (“ALL”, Analytical Luminescence Laboratory, San Diego, Calif.), and cellular debris was collected as a pellet by centrifugation at 2800×g for 20 min at 4° C. Supernatants (20-30 μl) were normalized to 1 μg/ml of total protein content, and were mixed with 70-80 μl ALL buffer. Reactions were initiated by injection of 100 μl of 1 mM luciferin (Sigma Chemical Co., St. Louis, Mo.). The relative light units were determined by using an ALL luminometer that recorded over 20-second intervals.

[5] = molecular target: intracellular type PAF receptor (rat brain microsomal preparations) (Rattus norvegicus, UniProt P46002); assay: Competition for 3H-PAF binding to rat brain cortex microsomal membranes; details: rat brain cortex microsomal preparation
Procedure: as §1

[6] = tested on: human COX-2 promoter; assay: PAF-induced COX-2 promoter-luciferase transcription in CV-1 cells; assay type: cell-based; details: 100 nM compound, 100 nM PAF
Procedure: as §3, §4, §5, §6

[7] = tested on: CHO-C cells (do not exp PAF-R); assay: Competition for 3H-PAF binding to CHO-C cell homogenates
Procedure: as §1, §2

[8] = tested on: COX-2 mRNA; assay: COX-2 mRNA expression after cryogenic injury (vasogenic cerebral edema), Northern blot; assay type: in vivo, Sprague-Dawley rats; details: rat
Procedure: Brain COX-2 gene expression is known to be enhanced as a result of injury as well as by seizures (Marcheselli and Bazan, 1996), and PAF receptors are involved in COX-2 expression (Bazan et al, 1994). To further test the LAU-0900 series compounds as PAF antagonists, the compounds were tested in an in vivo model for the potential blocking of injury-induced COX-2 induction. Adult Sprague-Dawley rats, 175 to 250 g body weight, were purchased from a commercial breeder (Charles River Laboratories, Wilmington, Mass.). One group of four rats received an intra-cerebroventricular injection of LAU-0903 (10 mg/kg in DMSO as a vehicle), 15 min before the generation of cerebral edema. Another group of four rats received an intraperitoneal injection of desxmethasone every 8 hr for a period of 24 hr prior to injury. Animals were immobilized by ether anesthesia, and vasogenic cerebral edema was generated by the application of a liquid nitrogen-cooled probe for 1 min on the parietal region of the skull. The rats were allowed to recover for either 2 or 6 hr before being decapitated to sample the brain. Total brain tissues were obtained, and total-RNA was extracted. The RNA was then assayed by Northern blot analysis for COX-2 mRNA. […] Autoradiography or phosphorimage quantification was performed.

[9] = Middle cerebral artery occlusion (MCA-O) stroke model, infarct volume by TTC; assay type: in vivo, C57BL/6 mice; details: 30 mg/kg 1 hr after reperfusion following 1 hr of MCA-O
[10] = MCA-O with 21 days reperfusion, Cresil-Violet histology; assay type: in vivo, C57-bl/6 mice; details: 30 mg/kg i.p. once 1 hr after onset of reperfusion
Procedure: In a second group of experiments, C57-bl/6 mice were treated with either a sham procedure, or with 1 hr with MCA-O followed by a reperfusion period of 21 days. Cresil-violet staining was used to assess brain damage in brain slices obtained as above. […] (Data not shown.). […] (Data not shown).
In a third set of experiments, the MCA-O treated mice were injected once with the LAU-0900 series compounds (LAU-0901, LAU-0904, and LAU-0911; at 30 mg/kg) or vehicle 1 hr after the onset of reperfusion. The LAU-0900 compounds were solubilized in 45% 2-hydroxypropyl-β-cyclodextrine (Sigma Chemical Co.), and delivered intraperitoneally. The mice were reperfused for 21 days, and killed. Coronal sections of mouse brains were processed for histology, and stained with Cresil-Violet. Sections from individual animals were analyzed, with pictures of the right side (infarcted) of the brain compared to the left side, which show almost no damage.
(Data not shown). […] Almost normal morphology was found in the brains of the LAU-0900-treated animals, indicating a high degree of protection. (Data not shown), even though administered 1 hr after the initiation of reperfusion.

T2 sequence (P21556 whole entry): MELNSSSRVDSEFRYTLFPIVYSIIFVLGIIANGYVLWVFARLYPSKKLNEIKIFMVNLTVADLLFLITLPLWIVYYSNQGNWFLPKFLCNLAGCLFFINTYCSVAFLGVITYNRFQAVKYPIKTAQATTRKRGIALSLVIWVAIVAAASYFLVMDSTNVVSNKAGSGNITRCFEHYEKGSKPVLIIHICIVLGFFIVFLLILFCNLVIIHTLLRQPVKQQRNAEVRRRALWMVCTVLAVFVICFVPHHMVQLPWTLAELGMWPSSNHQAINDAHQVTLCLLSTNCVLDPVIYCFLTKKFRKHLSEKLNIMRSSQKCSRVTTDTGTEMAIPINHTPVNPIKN
T1 sequence (P21556 whole entry): as above
Sequence of intracellular type PAF receptor (rat brain microsomal preparations) (P46002 whole entry): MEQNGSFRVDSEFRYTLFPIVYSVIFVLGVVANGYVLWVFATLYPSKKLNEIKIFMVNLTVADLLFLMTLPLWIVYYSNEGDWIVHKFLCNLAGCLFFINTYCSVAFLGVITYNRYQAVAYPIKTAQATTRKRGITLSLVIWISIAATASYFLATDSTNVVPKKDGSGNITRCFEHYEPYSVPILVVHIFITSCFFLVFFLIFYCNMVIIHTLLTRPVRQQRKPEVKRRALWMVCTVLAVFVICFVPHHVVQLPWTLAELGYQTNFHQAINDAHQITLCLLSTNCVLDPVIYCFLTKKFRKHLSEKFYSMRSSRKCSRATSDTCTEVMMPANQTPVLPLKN

COC(=O)C1=C(C)NC(C)=C(C(=O)OCCCSc2ccc(-n3ccnc3)cc2)C1C (stereo not shown) [LAU-0903, 2,4,6-Trimethyl-1,4-dihydro-pyridine-3,5-dicarboxylic acid 5-[3-(imidazol-1-yl-phenylsulphanyl)]-propyl-1-ester 3-methyl ester]
KI ([1]; CHO-A homogenates): No displacement | IC50 ([1]; CHO-A homogenates (moderately express PAF-R)): No displacement | Effect on accumulation of Evans Blue in brain cortex [2]: protective effect | Significance of 3H-PAF displacement ([3]; CHO-B cell homogenates): significant displacement | IC50 ([3]; CHO-B homogenates (heavily overexpress PAF-R)): ~0.0538 nM and 0.0538 nM | Inhibition of COX-2 transcription induced by IL-1β [4]: inhibited | Competitive activity at 3H-PAF binding sites (curve profile) [5]: competitive activity at both binding sites | Inhibition of COX-2 transcription induced by PAF [6]: inhibited | KI ([7]; CHO-C homogenates): No displacement | IC50 ([7]; CHO-C homogenates (do not express PAF-R)): No displacement | Inhibition of cryogenically induced COX-2 mRNA ([8]; 10 mg/kg intra-cerebroventricular 15 min before injury): more than 50% | Duration of COX-2 mRNA inhibition after a single injection ([8]; 10 mg/kg intra-cerebroventricular): up to 6 hours

COC(=O)C1=C(C)NC(C)=C(C(=O)OCCCOc2cc(OC)c(OC)c(OC)c2)C1C (stereo not shown) [LAU-0911, 2,4,6-Trimethyl-1,4-dihydro-pyridine-3,5-dicarboxylic acid 5-(3,4,5-trimethoxyphenoxy)-propyl-1-ester 3-methyl ester]
Reduction of infarcted volume [9]: 40% | Protection from brain damage (Cresil-Violet histology) [10]: significant protection | Inhibition of COX-2 transcription induced by IL-1β [4]: inhibited | Inhibition of COX-2 transcription induced by PAF [6]: inhibited
